Test results from US9963480B2, “Nucleoside phosphoramidate compound and use thereof” (priority 2013, dated 2018).

Legend:
HCV 1b replicon = test: Antiviral activity assay in HCV replicon system (Huh7 1b cells, luciferase reporter); type: cell-based; settings: Hepatitis C virus, Huh-7; Huh7 1b cells with HCV 1b replicon, Bright-Glo luciferase, 72 h; read-out: EC50
Source text: The cell line Huh7 1b, which was provided by WuXi AppTec Co., Ltd. in Shanghai, contained an HCV 1b replicon with a stable Luciferase (Luc) reporter. It was constructed by cloning HCV nonstructural protein gene, neo (G418 resistance) and luciferase reporter gene into the pBR vector through gene recombination technology. Then the vector carrying the HCV replicon was transfected into Huh7 cells, and the transfected Huh7 cells were screened by G418 resistance. The HCV replicon was stably replicated, and the related protein and luciferase were stably expressed in Huh7 cells. The cells model was used for in-vitro screen of anti-HCV compounds. The anti-HCV activity of the compounds was measured by detecting the level of luciferase expression. See Lohmann V, et al. 1999. Replication of subgenomic hepatitis C virus RNAs in a hepatoma cell line. Science. 285(5424):110-113.
The control drug used in this experimental example was the compound of Example 25 in WO 2008/121634 (PCT/US2008/058183), i.e. (S)-2-{[(2R,3R,4R,5R)-5-(2,4-dioxo-3,4-dihydro-2H-pyrimidin-1-yl)-4-fluoro-3-hydr oxy-4-methyl-tetrahydro-furan-2-ylmethoxy]-phenoxy-phosphorylamino}-propanoic acid isopropyl ester. This compound was prepared according to the method described in J. Org. chem, 2011, 76, 8311-8319, and identified by H-NMR and mass spectrometry.
• 2.1 compound preparation: adding each of the compounds listed in Table 2 to 96-well plates using a POD™ 810 Automation Platform (LabCyte Corporation, USA), with 10 μM of each of the compounds as a starting concentration and in duplicate; serially diluting each of the compounds in 3-fold fashion and formulating 10 concentrations, with the final concentration of DMSO being 0.5%; • 2.2 cells preparation: seeding the Huh71b cells into 96-well plates respectively with a volume of 125 μl and 8×10^3 cells/well, and incubating in a 37° C., 5% CO2 incubator for 72 h; • 2.3 detection of cell activity: adding 30 μl per cell of the CellTiter-Fluor™ Reagent, incubating in a 37° C., 5% CO2 incubator for 1 h, measuring the fluorescence signal values with a fluorometer, and using the obtained data for calculation of cytotoxicities of the compounds; • 2.4 Bright-Glo detection: adding 100 μl per well of the Bright-Glo™ Luciferase Substrate, using a chemiluminescence detection system EnVision™ (PerkinElmer, USA) to detect the fluorescence signal values within 5 minutes, and using the obtained data for calculation of potencies of the compounds. • 2.5 data processing: converting the obtained data to a percentage of cell viability (Viability %) using the following formula:
[formula] • CPD: fluorescence signal value of the well added with the compound • ZPE (Zero percent effect): fluorescence signal value of the control well with zero percent effect. • Processing the raw data to calculate a percentage of inhibition (Inhibition %) using the following formula:
[formula] • CPD: fluorescence signal value of the well added with the compound; • HPE (Hundred percent effect): fluorescence signal value of the control well with hundred percent effect; • ZPE (Zero percent effect): fluorescence signal value of the control well with zero percent effect.
The inhibition percentage was processed by the GraphPad Prism software to obtain the corresponding curves and EC50 values.

[1] = Pharmacokinetic studies in SD rats: metabolite GS-461203 in liver homogenate; type: in vivo; settings: liver tissue, 50 mg/kg intragastric
Experimental: In this experiment, the compound of Example 1 was used, and the positive control drug was the same as above. Each of the compounds was added to 0.5% sodium carboxymethyl cellulose (CMC), and the mixture was vortexed to prepare a 10 mg/mL suspension for intragastric administration.
The standard substance GS-461203 was the metabolite of the tested compounds, and the chemical name was (2′R)-2′-deoxy-2′-fluoro-2′-methyluridinetriphosphate, which was purchased from TriLink BioTechnologies Corporation, USA.
Male SD rats, 6-8 weeks old, weighing 237.0-268.4 g, provided by Shanghai Super-B&K laboratory animal Co. Limited.
• 1) administration: dividing SD rats into 4 groups, with 18 rats in each group, intragastrically administering with the compound in an amount of 50 mg/kg. […]

In the case of `CC(C)OC(=O)[C@H](C)NP(=O)(OC[C@H]1O[C@@H](n2ccc(=O)[nH]c2=O)[C@](C)(F)[C@@H]1O)Oc1ccc(-c2ccccc2)cc1` (stereo partly drawn) [Example 1, (2S)-2-((([1,1′-biphenyl]-4-yloxy)(((2R,3R,4R,5R)-5-(2,4-dioxo-3,4-dihydropyrimidin-1(2H)-yl)-4-fluoro-3-hydroxy-4-methyltetrahydrofuran-2-yl)methoxy)phosphoryl)amino)propanoic Acid Isopropyl Ester], the EC50 (HCV 1b replicon) is reported as 56 nM and the “in vivo exposure level of the metabolite compared with the positive control” value [1] is reported as “greater”.
